#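 Briefly, cells in 96-well plates were exposed to five compound concentrations for 48 h, and endpoints were estimated by linear interpolation. GI50 is the concentration that inhibits growth by half. TGI is the concentration that stops growth completely.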
# Legend:
# Assay in all cases: NCI tumour cell line growth inhibition, 48 h
# 786-0 renal = test system: 786-0 renal
# A498 renal = test system: A498 renal
# A549 NSCLC = test system: A549 NSCLC
# BT-549 breast = test system: BT-549 breast
# CAKI-1 renal = test system: CAKI-1 renal
# CCRF-CEM leukemia = test system: CCRF-CEM leukemia
# COLO 205 colon = test system: COLO 205 colon
# DU-145 prostate = test system: DU-145 prostate
# EKVX NSCLC = test system: EKVX NSCLC
# HCC-2998 colon = test system: HCC-2998 colon
# HCT-116 colon = test system: HCT-116 colon
# HCT-15 colon = test system: HCT-15 colon
# HL-60(TB) leukemia = test system: HL-60(TB) leukemia
# HOP-62 NSCLC = test system: HOP-62 NSCLC
# HOP-92 NSCLC = test system: HOP-92 NSCLC
# HS 578T breast = test system: HS 578T breast
# HT29 colon = test system: HT29 colon
# IGROV1 ovarian = test system: IGROV1 ovarian
# K-562 leukemia = test system: K-562 leukemia
# KM12 colon = test system: KM12 colon
# LOX IMVI melanoma = test system: LOX IMVI melanoma
# M14 melanoma = test system: M14 melanoma
# MALME-3M melanoma = test system: MALME-3M melanoma
# MCF7 breast = test system: MCF7 breast
# MDA-MB-231 breast = test system: MDA-MB-231 breast
# MDA-MB-435 = test system: MDA-MB-435
# MOLT-4 leukemia = test system: MOLT-4 leukemia
# NCI-H226 lung = test system: NCI-H226 lung
# NCI-H23 lung = test system: NCI-H23 lung
# NCI-H460 lung = test system: NCI-H460 lung
# NCI-H522 lung = test system: NCI-H522 lung
# NCI/ADR-RES ovarian = test system: NCI/ADR-RES ovarian
# OVCAR-3 ovarian = test system: OVCAR-3 ovarian
# OVCAR-4 ovarian = test system: OVCAR-4 ovarian
# OVCAR-8 ovarian = test system: OVCAR-8 ovarian
# PC-3 prostate = test system: PC-3 prostate
# RPMI-8226 leukemia = test system: RPMI-8226 leukemia
# RXF 393 renal = test system: RXF 393 renal
# SF-268 CNS = test system: SF-268 CNS
# SF-295 CNS = test system: SF-295 CNS
# SK-MEL-2 melanoma = test system: SK-MEL-2 melanoma
# SK-MEL-5 melanoma = test system: SK-MEL-5 melanoma
# SK-OV-3 ovarian = test system: SK-OV-3 ovarian
# SN12C renal = test system: SN12C renal
# SNB-19 CNS = test system: SNB-19 CNS
# SNB-75 CNS = test system: SNB-75 CNS
# SR leukemia = test system: SR leukemia
# SW-620 colon = test system: SW-620 colon
# T-47D breast = test system: T-47D breast
# TK-10 renal = test system: TK-10 renal
# U251 CNS = test system: U251 CNS
# UACC-257 melanoma = test system: UACC-257 melanoma
# UACC-62 melanoma = test system: UACC-62 melanoma
# UO-31 renal = test system: UO-31 renal
structure (smiles),measurement,setting,value
CC(C)[C@H]1COC(=O)N1[C@@H]1C(=O)N([C@@H](CCC(=O)N2CCN(C3CCCC3)CC2)C(=O)N[C@@H]2CCCc3ccccc32)[C@@H]1/C=C/c1cccc(Br)c1,GI50,786-0 renal,2010 nM
same,TGI,786-0 renal,4690 nM
same,GI50,A498 renal,1400 nM
same,TGI,A498 renal,4040 nM
same,GI50,A549 NSCLC,3050 nM
same,TGI,A549 NSCLC,11500 nM
same,GI50,BT-549 breast,1460 nM
same,TGI,BT-549 breast,3110 nM
same,GI50,CAKI-1 renal,1880 nM
same,TGI,CAKI-1 renal,4010 nM
same,GI50,CCRF-CEM leukemia,2910 nM
same,TGI,CCRF-CEM leukemia,8400 nM
same,GI50,COLO 205 colon,1500 nM
same,TGI,COLO 205 colon,3110 nM
same,GI50,DU-145 prostate,1520 nM
same,TGI,DU-145 prostate,7570 nM
same,GI50,EKVX NSCLC,3010 nM
same,TGI,EKVX NSCLC,15200 nM
same,GI50,HCC-2998 colon,1830 nM
same,TGI,HCC-2998 colon,3630 nM
same,GI50,HCT-116 colon,1570 nM
same,TGI,HCT-116 colon,2990 nM
same,GI50,HCT-15 colon,1690 nM
same,TGI,HCT-15 colon,3630 nM
same,GI50,HL-60(TB) leukemia,1910 nM
same,TGI,HL-60(TB) leukemia,4900 nM
same,GI50,HOP-62 NSCLC,1820 nM
same,TGI,HOP-62 NSCLC,4960 nM
same,GI50,HOP-92 NSCLC,1500 nM
same,TGI,HOP-92 NSCLC,4210 nM
same,GI50,HS 578T breast,2500 nM
same,TGI,HS 578T breast,9310 nM
same,GI50,HT29 colon,1300 nM
same,TGI,HT29 colon,2770 nM
same,GI50,IGROV1 ovarian,1830 nM
same,TGI,IGROV1 ovarian,5900 nM
same,GI50,K-562 leukemia,2170 nM
same,TGI,K-562 leukemia,4950 nM
same,GI50,KM12 colon,2170 nM
same,TGI,KM12 colon,5830 nM
same,GI50,LOX IMVI melanoma,376 nM
same,TGI,LOX IMVI melanoma,1550 nM
same,GI50,M14 melanoma,1800 nM
same,TGI,M14 melanoma,3460 nM
same,GI50,MALME-3M melanoma,1620 nM
same,TGI,MALME-3M melanoma,3260 nM
same,GI50,MCF7 breast,2090 nM
same,TGI,MCF7 breast,6330 nM
same,GI50,MDA-MB-231 breast,1860 nM
same,TGI,MDA-MB-231 breast,3770 nM
same,GI50,MDA-MB-435,1260 nM
same,TGI,MDA-MB-435,2650 nM
same,GI50,MOLT-4 leukemia,1450 nM
same,TGI,MOLT-4 leukemia,7390 nM
same,GI50,NCI-H226 lung,3490 nM
same,TGI,NCI-H226 lung,15600 nM
same,GI50,NCI-H23 lung,3460 nM
same,TGI,NCI-H23 lung,16600 nM
same,GI50,NCI-H460 lung,1690 nM
same,TGI,NCI-H460 lung,3620 nM
same,GI50,NCI-H522 lung,1750 nM
same,TGI,NCI-H522 lung,3510 nM
same,GI50,NCI/ADR-RES ovarian,2980 nM
same,TGI,NCI/ADR-RES ovarian,11800 nM
same,GI50,OVCAR-3 ovarian,1970 nM
same,TGI,OVCAR-3 ovarian,3920 nM
same,GI50,OVCAR-4 ovarian,2790 nM
same,TGI,OVCAR-4 ovarian,15000 nM
same,GI50,OVCAR-8 ovarian,4120 nM
same,TGI,OVCAR-8 ovarian,15400 nM
same,GI50,PC-3 prostate,1800 nM
same,TGI,PC-3 prostate,4280 nM
same,GI50,RPMI-8226 leukemia,1470 nM
same,TGI,RPMI-8226 leukemia,3930 nM
same,GI50,RXF 393 renal,1590 nM
same,TGI,RXF 393 renal,3470 nM
same,GI50,SF-268 CNS,1110 nM
same,TGI,SF-268 CNS,2830 nM
same,GI50,SF-295 CNS,2150 nM
same,TGI,SF-295 CNS,5050 nM
same,GI50,SK-MEL-2 melanoma,1690 nM
same,TGI,SK-MEL-2 melanoma,3300 nM
same,GI50,SK-MEL-5 melanoma,1510 nM
same,TGI,SK-MEL-5 melanoma,2840 nM
same,GI50,SK-OV-3 ovarian,2820 nM
same,TGI,SK-OV-3 ovarian,8210 nM
same,GI50,SN12C renal,2270 nM
same,TGI,SN12C renal,5510 nM
same,GI50,SNB-19 CNS,2770 nM
same,TGI,SNB-19 CNS,14500 nM
same,GI50,SNB-75 CNS,1360 nM
same,TGI,SNB-75 CNS,3910 nM
same,GI50,SR leukemia,1870 nM
same,TGI,SR leukemia,4710 nM
same,GI50,SW-620 colon,1950 nM
same,TGI,SW-620 colon,4570 nM
same,GI50,T-47D breast,2260 nM
same,GI50,TK-10 renal,1460 nM
same,TGI,TK-10 renal,3470 nM
same,GI50,U251 CNS,1900 nM
same,TGI,U251 CNS,3510 nM
same,GI50,UACC-257 melanoma,1630 nM
same,TGI,UACC-257 melanoma,3440 nM
same,GI50,UACC-62 melanoma,1800 nM
same,TGI,UACC-62 melanoma,3580 nM
same,GI50,UO-31 renal,1490 nM
same,TGI,UO-31 renal,3040 nM

# — PubChem BioAssay (NCI)
